Data reported in US10864202B2, “Inhibitors of lysine specific demethylase-1” (CELGENE QUANTICEL RESEARCH, INC., priority 2014, dated 2020).

Each compound was assayed against human LSD1 (Homo sapiens (Human), UniProt O60341) (assay: In vitro enzyme inhibition assay LSD-1 (TR-FRET)). Details: full-length human LSD1, H3K4me1-biotin peptide.
Type: biochemical
Protocol: This assay determines the ability of a test compound to inhibit LSD1 demethylase activity.
The enzymatic assay of LSD1 activity is based on Time Resolved-Fluorescence Resonance Energy Transfer (TR-FRET) detection.
The ability of the compounds disclosed herein to inhibit LSD1 activity was quantified and the respective IC50 value was determined.
With `N#Cc1ccc(-c2cc3c(ccn3C[C@@H]3CCNC3)nc2N2CCOCC2)cc1` [Example 6] the IC50 was 100 to 1000 nM. `N#Cc1ccc(-c2cc3c(ccn3CC3(F)CCNC3)nc2N2CCOCC2)cc1` (stereo not shown) [Example 8, 4-[1-[(3-fluoropyrrolidin-3-yl)methyl]-5-morpholin-4-ylpyrrolo[3,2-b]pyridin-6-yl]benzonitrile] was tested, and the IC50 was 100 to 1000 nM. `Cc1ccc(-c2cnc(NCC3CNCCO3)nc2-c2ccc(C#N)cc2)cc1` (racemic) [Example 33, (±)-4-[5-(4-methylphenyl)-2-[(morpholin-2-ylmethyl)amino]pyrimidin-4-yl]benzonitrile] was tested, and the IC50 was less than 100 nM. `Cc1ccc(-c2cnc(N[C@@H]3C[C@H]4CNC[C@H]4C3)nc2-c2ccc(C#N)cc2)cc1` [Example 27] gave an IC50 of 100 to 1000 nM. `Cc1ccc(-c2cnc(NCC3CCCNC3)nc2-c2ccc(C#N)cc2)cc1` (racemic) [Example 31, (±)-4-5-(4-methylphenyl)-2-[(piperidin-3-ylmethyl)amino]pyrimidin-4-yl]benzonitrile] was tested, and the IC50 was less than 100 nM. In the case of `Cc1ccc(-c2cnc(N3CC4CNCC(C3)O4)nc2-c2ccc(C#N)cc2)cc1` [Example 41, 4-[5-(4-methylphenyl)-2-{9-oxa-3,7-diazabicyclo[3.3.1]nonan-3-yl}pyrimidin4-yl]benzonitrile], the IC50 is reported as 100 to 1000 nM. `N#Cc1ccc(-c2cc3c(ccn3C[C@H]3CCNC3)nc2Cl)cc1` [Example 4] was tested, and the IC50 was 100 to 1000 nM. For `N#Cc1ccc(-c2nc(N3CC4CNCC(C3)O4)ncc2-c2ccc(F)cc2)cc1` [Example 42, 4-[5-(4-fluorophenyl)-2-{9-oxa-3,7-diazabicyclo[3.3.1]nonan-3-yl}pyrimidin-4-yl]benzonitrile], the IC50 was 100 to 1000 nM. In the case of `N#Cc1ccc(-c2nc(NC[C@H]3CCNC3)ncc2Cl)cc1` [Example 17, 4-(5-chloro-2-{[(3S)-pyrrolidin-3-ylmethyl]amino}pyrimidin-4-yl)benzonitrile], the IC50 is reported as 100 to 1000 nM.

Each compound was assayed on THP-1 (AML) cells (assay: LSD1 CD11b cellular assay (flow cytometry)). Details: Homo sapiens, 96 h; CD11b expression in THP-1 cells, 4 days incubation.
Type: cell-based
Protocol: To analyze LSD1 inhibitor efficacy in cells, a CD11b flow cytometry assay was performed. LSD1 inhibition induces CD11b expression in THP-1 (AML) cells which can be measured by flow cytometry. […] LSD1 test compounds were serially diluted in DMSO. The dilutions were added to each well accordingly to a final concentration of 0.2% DMSO. The cells were incubated at 37 degrees Celsius in 5% CO2 for 4 days. 250 μL of each well was transferred to a well in a 96 well round bottom plate. The plate was centrifuged at 1200 rpm at 4 degrees Celsius in a Beckman Coulter Alegra 6KR centrifuge for 5 minutes. The media was removed leaving the cells at the bottom of the wells. The cells were washed in 100 μL cold HBSS (Hank's Balanced Salt Solution) plus 2% BSA (Bovine Serum Albumin) solution and centrifuged at 1200 rpm at 4 degrees Celsius for 5 minutes. The wash was removed. […] The cells were centrifuged and washed two times in 100 μl HBSS plus 2% BSA. After the final spin the cells were resuspended in 100 μL HBSS plus 2% BSA containing 1 ug/mL DAPI (4′,6-diamidino-2-phenylindole). The cells were then analyzed by flow cytometry in a BD FACSAria machine. Cells were analyzed for CD11b expression. The percent of CD11b expressing cells for each inhibitor concentration was used to determine an IC50 curve for each compound analyzed.
Compound `N#Cc1ccc(-c2nc(NCC3CCNC3)ncc2C#CC2CC2)cc1` (stereo not shown) [Example 26] has an IC50 of 100 to 1000 nM.
